In patent US20140323501A1, “AMINO-PROPYLENE-GLYCOL DERIVATIVES, PREPARATION METHOD AND PHARMACEUTICAL COMPOSITION AND USE THEREOF” (INSTITUTE OF MATERIA MEDICA, CHINESE ACADEMY OF MEDICAL …, priority 2011, published 2014):

What was measured:
[1] = system: lymphocyte proliferation / cytotoxic T lymphocytes; settings: MLR and CTL; background, Fujita et al.; cited from earlier work
[2] = system: SD rat peripheral blood lymphocyte counts; assay: Effect of S1P1 receptor agonists on rat vein (peripheral) blood lymphocyte counts; format: in vivo; settings: Table 1, 10 mg/Kg intragastric; for LYM 0 h: before administration; for LYM 1 h: 1 h after administration; for LYM 2 h: 2 h after administration; for LYM 4 h: 4 h after administration; for LYM 8 h: 8 h after administration; for LYM 12 h: 12 h after administration; for LYM 24 h: 24 h after administration; for compared with 0 h (%) 1 h / compared with 0 h (%) 2 h / compared with 0 h (%) 4 h / compared with 0 h (%) 8 h / compared with 0 h (%) 12 h / compared with 0 h (%) 24 h: lymphocyte count change vs 0 h
Method: 10 mg of drugs were measured and placed in a mortar. After 4 mL of 5‰ CMC-Na were added, homogenous suspension was prepared in the mortar (one drop of twain-80 was added to help dissolving). Dosage: 10 mg/Kg, dose volume: 0.4 mL/100 g, intragastric administration.
Every medicated group was assigned three rats.
After the experimental animals stable in the clean environment for 24 h, 10 μL of blood was withdrawn via tail vein and diluted into 2 mL of diluents quickly. […] Then the prepared drugs were administered intragastrically to the animals. […] The animals were killed after 24 h.

[3] = system: SD rat heart rate; assay: Effect of S1P1 receptor agonists on rat heart rate; format: in vivo; settings: Table 2; for HR delta %: (lowest heart rate postdose − pre-administration)/pre-administration; for heart rate 0.5 h / heart rate 1 h / heart rate 3 h / heart rate 6 h / heart rate 8 h / heart rate 24 h / heart rate pre-administration: intragastric; for heart rate 0.5 h: 0.5 h after administration; for heart rate 1 h: 1 h after administration; for heart rate 3 h: 3 h after administration; for heart rate 6 h: 6 h after administration; for heart rate 8 h: 8 h after administration; for heart rate 24 h: 24 h after administration; for heart rate pre-administration: before administration
Method: 2.1 Experimental animals: SD rats, purchased from Weitonglihua. Weight: 200-240 g, male. Every test group was assigned three rats. The normal rats were set as control group and determined as the medicated group parallelly for three times. The positive drug FTY720 was repeated three times.
2.2 Apparatus: Intelligent non-invasive blood pressure measurement meter (Softron, Japan).
(1) Preparation: The drug was dissolved to reach a concentration of 2.5 mg/mL.
(1) Determination of rat heart rate before administration. Repeat for three times.
(2) Administration: intragastric administration after SD rats weighed.
(3) Determination of rat heart rate at the time 0.5 h, 1 h, 3 h, 6 h, 8 h and 24 h after administration. Repeat for three times
Every drug was tested with three SD rats parallelly. […] Delta % of heart rate=(the lowest heart rate postdose−the heart rate pre-administration)/the heart rate pre-administration, reflects the influence of drugs on rat heart rate.

| Structure (SMILES) | LYM 0 h [2] | LYM 1 h [2] | LYM 2 h [2] | LYM 4 h [2] | LYM 8 h [2] | LYM 12 h [2] | LYM 24 h [2] | compared with 0 h (%) 1 h [2] [%] | compared with 0 h (%) 2 h [2] [%] | compared with 0 h (%) 4 h [2] [%] | compared with 0 h (%) 8 h [2] [%] | compared with 0 h (%) 12 h [2] [%] | compared with 0 h (%) 24 h [2] [%] | HR delta % [3] [%] | heart rate 0.5 h [3] | heart rate 1 h [3] | heart rate 3 h [3] | heart rate 6 h [3] | heart rate 8 h [3] | heart rate 24 h [3] | other results |
| --- | --- | --- | --- | --- | --- | --- | --- | --- | --- | --- | --- | --- | --- | --- | --- | --- | --- | --- | --- | --- | --- |
| CCCCCCC(=O)CCCCCC/C=C/C[C@@H](O)[C@H](O)[C@@](N)(CO)C(=O)O [ISP-I, myriocin] |  |  |  |  |  |  |  |  |  |  |  |  |  |  |  |  |  |  |  |  | activity relative to cyclosporine [1]: 10 fold |
| CCCCc1ccc(Oc2ccc(CCC(N)(CO)CO)cc2)cc1 [Syl926] | 5.17 ± 2.12 × 10^9/L | 3.40 ± 0.20 × 10^9/L | 2.57 ± 0.84 × 10^9/L | 2.33 ± 0.90 × 10^9/L | 1.40 ± 0.79 × 10^9/L | 1.33 ± 0.42 × 10^9/L | 1.37 ± 0.31 × 10^9/L | 34.19 | 50.32 | 54.84 | 72.90 | 74.19 | 73.55 | 9.60 | 361.91 | 346.80 | 327.09 | 340.82 | 318.55 | 354.80 | heart rate pre-administration [3]: 352.85 |
| CCc1nc(-c2ccc(Oc3ccc(CCC(N)(CO)CO)cc3)cc2)co1 [Syl934] | 4.17 ± 0.40 × 10^9/L | 3.60 ± 0.69 × 10^9/L | 2.47 ± 0.23 × 10^9/L | 2.87 ± 0.55 × 10^9/L | 1.83 ± 0.68 × 10^9/L | 1.17 ± 0.49 × 10^9/L | 1.33 ± 0.32 × 10^9/L | 13.60 | 40.80 | 31.20 | 56.00 | 72.00 | 68.00 | 2.4 | 376.00 | 369.10 | 337.86 | 338.09 | 362.55 | 365.89 | heart rate pre-administration [3]: 346.00 |
| CC(C)c1nc(-c2ccc(Oc3ccc(CCC(N)(CO)CO)cc3)cc2)co1 [Syl935] | 4.77 ± 0.21 × 10^9/L | 3.73 ± 1.23 × 10^9/L | 2.70 ± 1.05 × 10^9/L | 2.77 ± 0.72 × 10^9/L | 2.10 ± 0.36 × 10^9/L | 1.17 ± 0.31 × 10^9/L | 1.73 ± 0.29 × 10^9/L | 21.68 | 43.36 | 41.96 | 55.94 | 75.52 | 63.64 | 15.90 | 387.18 | 405.20 | 384.20 | 352.44 | 373.33 | 398.50 | heart rate pre-administration [3]: 419.00 |
